Tested on: 616215-338-R-J1-PDC complex spheroid growth, % test/control
Test: Anticancer human tumor 616215-338-R-J1-PDC patient-derived colon adenocarcinoma cell line growth inhibition [Asc]
Settings: for IC50: curve of first compound; for viability, T/C: stronger effect = lower value
How it was run: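 Stromal components (HUVEC and hMSC) are co-assembled with the cancer cells into multicellular spheroids. Drugs are then added singly or paired, at concentrations falling by half-log increments from a clinically achievable maximum, capped at 10 microM without known Cmax.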
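Note: spheroids exposed to agents for seven days before readout.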
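Throughout, for viability, T/C: 100% = DMSO vehicle control viability.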

NC(=O)C(=Cn1cnc(-c2cc(C(F)(F)F)cc(C(F)(F)F)c2)n1)c1cncnc1 + CNC(C)C(=O)NC1CN(S(=O)(=O)c2cccc(S(=O)(=O)N3CCC4CCC(C(=O)NC(c5ccccc5)c5ccccc5)N4C(=O)C(NC(=O)C(C)NC)C3)c2)CCC2CCC(C(=O)NC(c3ccccc3)c3ccccc3)N2C1=O
IC50 (second compound 0.00316 µM): > 300 nM
IC50 (second compound 0.01 µM): > 300 nM
IC50 (second compound 0.0316 µM): > 300 nM
IC50 (second compound 0.1 µM): > 300 nM
IC50 (second compound 0.316 µM): > 300 nM
IC50 (second compound 1 µM): 191 nM
viability, T/C (second compound 0.00316 µM, first compound 0.000949 µM): 104%
viability, T/C (second compound 0.00316 µM, first compound 0.003 µM): 105%
viability, T/C (second compound 0.00316 µM, first compound 0.00949 µM): 94.3%
viability, T/C (second compound 0.00316 µM, first compound 0.03 µM): 83.3%
viability, T/C (second compound 0.00316 µM, first compound 0.0949 µM): 73.9%
viability, T/C (second compound 0.00316 µM, first compound 0.3 µM): 53.2%
viability, T/C (second compound 0.01 µM, first compound 0.000949 µM): 107%
viability, T/C (second compound 0.01 µM, first compound 0.003 µM): 108%
viability, T/C (second compound 0.01 µM, first compound 0.00949 µM): 96.2%
viability, T/C (second compound 0.01 µM, first compound 0.03 µM): 72%
viability, T/C (second compound 0.01 µM, first compound 0.0949 µM): 76.2%
viability, T/C (second compound 0.01 µM, first compound 0.3 µM): 71.4%
viability, T/C (second compound 0.0316 µM, first compound 0.000949 µM): 115%
viability, T/C (second compound 0.0316 µM, first compound 0.003 µM): 108%
viability, T/C (second compound 0.0316 µM, first compound 0.00949 µM): 95.8%
viability, T/C (second compound 0.0316 µM, first compound 0.03 µM): 64.6%
viability, T/C (second compound 0.0316 µM, first compound 0.0949 µM): 78.4%
viability, T/C (second compound 0.0316 µM, first compound 0.3 µM): 54.7%
viability, T/C (second compound 0.1 µM, first compound 0.000949 µM): 117%
viability, T/C (second compound 0.1 µM, first compound 0.003 µM): 110%
viability, T/C (second compound 0.1 µM, first compound 0.00949 µM): 102%
viability, T/C (second compound 0.1 µM, first compound 0.03 µM): 68.5%
viability, T/C (second compound 0.1 µM, first compound 0.0949 µM): 70.5%
viability, T/C (second compound 0.1 µM, first compound 0.3 µM): 68.5%
viability, T/C (second compound 0.316 µM, first compound 0.000949 µM): 118%
viability, T/C (second compound 0.316 µM, first compound 0.003 µM): 118%
viability, T/C (second compound 0.316 µM, first compound 0.00949 µM): 105%
viability, T/C (second compound 0.316 µM, first compound 0.03 µM): 61.1%
viability, T/C (second compound 0.316 µM, first compound 0.0949 µM): 60.9%
viability, T/C (second compound 0.316 µM, first compound 0.3 µM): 67%
viability, T/C (second compound 1 µM, first compound 0.000949 µM): 112%
viability, T/C (second compound 1 µM, first compound 0.003 µM): 110%
viability, T/C (second compound 1 µM, first compound 0.00949 µM): 71.1%
viability, T/C (second compound 1 µM, first compound 0.03 µM): 88.2%
viability, T/C (second compound 1 µM, first compound 0.0949 µM): 59%
viability, T/C (second compound 1 µM, first compound 0.3 µM): 41.5%

O=C(c1ccc(F)c(F)c1Nc1ccc(I)cc1F)N1CC(O)([C@@H]2CCCCN2)C1 + CNC(C)C(=O)NC1CN(S(=O)(=O)c2cccc(S(=O)(=O)N3CCC4CCC(C(=O)NC(c5ccccc5)c5ccccc5)N4C(=O)C(NC(=O)C(C)NC)C3)c2)CCC2CCC(C(=O)NC(c3ccccc3)c3ccccc3)N2C1=O
IC50 (second compound 0.00316 µM): 40.6 nM
IC50 (second compound 0.01 µM): 19.2 nM
IC50 (second compound 0.0316 µM): 46.6 nM
IC50 (second compound 0.1 µM): 44.6 nM
IC50 (second compound 0.316 µM): 38.5 nM
IC50 (second compound 1 µM): 24 nM
viability, T/C (second compound 0.00316 µM, first compound 0.00316 µM): 113%
viability, T/C (second compound 0.00316 µM, first compound 0.01 µM): 94.8%
viability, T/C (second compound 0.00316 µM, first compound 0.0316 µM): 64.3%
viability, T/C (second compound 0.00316 µM, first compound 0.1 µM): 3.19%
viability, T/C (second compound 0.00316 µM, first compound 0.316 µM): 0.64%
viability, T/C (second compound 0.00316 µM, first compound 1 µM): 0.34%
viability, T/C (second compound 0.01 µM, first compound 0.00316 µM): 98.9%
viability, T/C (second compound 0.01 µM, first compound 0.01 µM): 109%
viability, T/C (second compound 0.01 µM, first compound 0.0316 µM): 8.64%
viability, T/C (second compound 0.01 µM, first compound 0.1 µM): 18.4%
viability, T/C (second compound 0.01 µM, first compound 0.316 µM): 2.31%
viability, T/C (second compound 0.01 µM, first compound 1 µM): 2.27%
viability, T/C (second compound 0.0316 µM, first compound 0.00316 µM): 103%
viability, T/C (second compound 0.0316 µM, first compound 0.01 µM): 87.8%
viability, T/C (second compound 0.0316 µM, first compound 0.0316 µM): 71.4%
viability, T/C (second compound 0.0316 µM, first compound 0.1 µM): 8.55%
viability, T/C (second compound 0.0316 µM, first compound 0.316 µM): 1.84%
viability, T/C (second compound 0.0316 µM, first compound 1 µM): 1.89%
viability, T/C (second compound 0.1 µM, first compound 0.00316 µM): 99.6%
viability, T/C (second compound 0.1 µM, first compound 0.01 µM): 99.8%
viability, T/C (second compound 0.1 µM, first compound 0.0316 µM): 70.7%
viability, T/C (second compound 0.1 µM, first compound 0.1 µM): 1.22%
viability, T/C (second compound 0.1 µM, first compound 0.316 µM): 0.55%
viability, T/C (second compound 0.1 µM, first compound 1 µM): 1.32%
viability, T/C (second compound 0.316 µM, first compound 0.00316 µM): 109%
viability, T/C (second compound 0.316 µM, first compound 0.01 µM): 107%
viability, T/C (second compound 0.316 µM, first compound 0.0316 µM): 56%
viability, T/C (second compound 0.316 µM, first compound 0.1 µM): 14.7%
viability, T/C (second compound 0.316 µM, first compound 0.316 µM): 2.54%
viability, T/C (second compound 0.316 µM, first compound 1 µM): 1.35%
viability, T/C (second compound 1 µM, first compound 0.00316 µM): 102%
viability, T/C (second compound 1 µM, first compound 0.01 µM): 106%
viability, T/C (second compound 1 µM, first compound 0.0316 µM): 32.9%
viability, T/C (second compound 1 µM, first compound 0.1 µM): 1.86%
viability, T/C (second compound 1 µM, first compound 0.316 µM): 0.87%
viability, T/C (second compound 1 µM, first compound 1 µM): 1.24%
